# Measured values as given in PubChem BioAssay AID1918991 (Molecular Pharmacology Branch, DTP, NCI, 2023).
# System: 186277-243-T-J2-PDC complex spheroid growth
# Experiment: Anticancer human tumor 186277-243-T-J2-PDC patient-derived colon adenocarcinoma cell line growth inhibition [AhR]
# Conditions: for IC50: curve of first compound; for viability, T/C: stronger effect = lower value
# Source text: Multicellular complex tumor spheroid response to aryl hydrocarbon receptor antagonists in combination with a variety of drugs and investigational agents in selected tumor cell lines
# The current study was undertaken to assess response to aryl hydrocarbon receptor antagonists in combination with standard-of-care drugs and investigational agents in solid tumor complex spheroid models. Complex spheroids include a stromal component modeled by human endothelial cells (HUVEC) and fibroblasts modeled by human mesenchymal stem cells (MSCs). The concentration ranges selected for each drug and investigational agent were based upon clinically achievable concentrations if the clinical Cmax of the agent was known.
# Compounds. The drugs and investigational agents: BAY 2416964 (NSC825713), GNF351 (NSC835774), CH-223191 (NSC835775), CPI-455 (NSC825282), aza-TdCyd (NSC777586), decitabine (NSC127716), belinostat (NSC758774), entinostat (NSC756642), pevonedistat (NSC761192), tazemetostat (NSC777109), talazoparib (NSC765396), olaparib (NSC753686), selinexor (NSC780203), nedisertib (M3814, NSC802822), bortezomib (NSC756655), venetoclax (NSC766270), doxorubicin (NSC123127), elimusertib (BAY189344, NSC800525), ceralasertib (AZD6738, NSC777638), TAK-243 (NSC785004), alisertib (NSC759677), etoposide (NSC141540), topotecan (NSC609699), eribulin (NSC707389), gemcitabine (NSC613327), carboplatin (NSC241240), cisplatin (NSC119875), and SN-38 (NSC673596) were obtained from the National Cancer Institute (NCI) Developmental Therapeutics Program Chemical Repository (32). The FDA-approved anticancer drug set is available from the Developmental Therapeutics Program at https://dtp.cancer.gov/organization/dscb/obtaining/available plates.htm. […] The stock solutions were prepared in dimethyl sulfoxide (DMSO, Sigma-Aldrich, St. Louis, MO, cat. D2650), except for the platinum compounds which were prepared in saline (Quality Biological, Gaithersburg, MD, cat. 114-055-101), at 800-fold the tested concentration and stored at -70 degrees C prior to their use. All drugs and investigational agents were tested over a range starting from a high concentration at or near the clinical Cmax and decreasing in half-log increments. If the clinical Cmax for an agent had not been determined, the highest concentration tested was 10 microM (Table 1).
# Cell Culture. All cells were maintained in an incubator at 37 degrees C and 5% CO2 with 95% humidity. The PDC lines were cultured according to standard operating procedures established by the NCI PDMR (https://pdmr.cancer.gov). Briefly, all PDCs were thawed and cultured in Matrigel-coated flasks prepared with a working solution of 1X Ham's F-12 nutrient mix, without supplementation (Invitrogen, Waltham, MA, cat. 11765054), 100 U/mL penicillin-streptomycin (Invitrogen, cat. 15140122), and 2.5% Matrigel (Corning Inc., Corning, NY, cat. 354248) for the first three passages. All PDCs were cultured in complete DMEM/F-12 media containing advanced DMEM/F-12 (Invitrogen, cat. 12634028), 4.9% defined fetal bovine serum, heat inactivated (HyClone Laboratories Inc., Logan, UT, cat. SH30070.03HI), 389 ng/mL hydrocortisone (Sigma-Aldrich, cat. H4001), 9.7 ng/mL human EGF recombinant protein (Invitrogen, cat. PHG0313), 23.4 microg/mL adenine (Sigma-Aldrich, cat. A2786), 97.3 U/mL penicillin-streptomycin (Invitrogen, cat. 15140122), 1.9 mM L-glutamine (Invitrogen, cat. 25030081), and 9.7 microM Y-27632 dihydrochloride (Tocris Bioscience, Bristol, United Kingdom, cat. 1254). The PDCs were cultured in complete DMEM/F12 media without 10 microM Y-27632 dihydrochloride for at least two passages prior to the screen. The established cell lines NCI-H1341 and […] were cultured in DMEM/F-12, HEPES (Invitrogen, cat. 11330032), 5% defined fetal bovine serum (HyClone Laboratories Inc., cat. SH30070.03), ITS premix universal culture supplement [insulin (5 microg/mL), transferrin (5 microg/mL), and selenious acid (5 ng/mL)] […]
# [1] = second compound 0.1 µM, first compound 0.0316 µM
# [2] = second compound 0.1 µM, first compound 0.1 µM
# [3] = second compound 0.1 µM, first compound 0.316 µM
# [4] = second compound 0.1 µM, first compound 1 µM
# [5] = second compound 0.1 µM, first compound 3.16 µM
# [6] = second compound 0.1 µM, first compound 10 µM
# [7] = second compound 0.316 µM, first compound 0.0316 µM
# [8] = second compound 0.316 µM, first compound 0.1 µM
# [9] = second compound 0.316 µM, first compound 0.316 µM
# [10] = second compound 0.316 µM, first compound 1 µM
# [11] = second compound 0.316 µM, first compound 3.16 µM
# [12] = second compound 0.316 µM, first compound 10 µM
# [13] = second compound 1 µM, first compound 0.0316 µM
# [14] = second compound 1 µM, first compound 0.1 µM
# [15] = second compound 1 µM, first compound 0.316 µM
# [16] = second compound 1 µM, first compound 1 µM
# [17] = second compound 1 µM, first compound 3.16 µM
# [18] = second compound 1 µM, first compound 10 µM
# [19] = second compound 3.16 µM, first compound 0.0316 µM
# [20] = second compound 3.16 µM, first compound 0.1 µM
# [21] = second compound 3.16 µM, first compound 0.316 µM
# [22] = second compound 3.16 µM, first compound 1 µM
# [23] = second compound 3.16 µM, first compound 3.16 µM
# [24] = second compound 3.16 µM, first compound 10 µM
# [25] = second compound 10 µM, first compound 0.0316 µM
# [26] = second compound 10 µM, first compound 0.1 µM
# [27] = second compound 10 µM, first compound 0.316 µM
# [28] = second compound 10 µM, first compound 1 µM
# [29] = second compound 10 µM, first compound 3.16 µM
# [30] = second compound 10 µM, first compound 10 µM
# 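Also: spheroids exposed to compounds for seven days before the viability read.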
# 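For viability, T/C in this document: luminescent signal used as a stand-in for viable cell amount; 100% = DMSO vehicle control wells.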
smiles,measurement,setting,value
CC(C)CC(NC(=O)C(Cc1ccccc1)NC(=O)c1cnccn1)B(O)O (stereo not given) + CC(CO)NC(=O)c1cc(-c2ccc(Cl)cc2)nn(-c2cnn(C)c2)c1=O,IC50,second compound 0.1 µM,5.95 nM
same,IC50,second compound 0.316 µM,5.9 nM
same,IC50,second compound 1 µM,6.06 nM
same,IC50,second compound 3.16 µM,5.87 nM
same,IC50,second compound 10 µM,5.37 nM
same,"viability, T/C","second compound 0.1 µM, first compound 0.000949 µM",117%
same,"viability, T/C","second compound 0.1 µM, first compound 0.003 µM",120%
same,"viability, T/C","second compound 0.1 µM, first compound 0.00949 µM",3.22%
same,"viability, T/C","second compound 0.1 µM, first compound 0.03 µM",0.06%
same,"viability, T/C","second compound 0.1 µM, first compound 0.0949 µM",0.07%
same,"viability, T/C","second compound 0.1 µM, first compound 0.3 µM",0.11%
same,"viability, T/C","second compound 0.316 µM, first compound 0.000949 µM",121%
same,"viability, T/C","second compound 0.316 µM, first compound 0.003 µM",117%
same,"viability, T/C","second compound 0.316 µM, first compound 0.00949 µM",3.12%
same,"viability, T/C","second compound 0.316 µM, first compound 0.03 µM",0.03%
same,"viability, T/C","second compound 0.316 µM, first compound 0.0949 µM",0.05%
same,"viability, T/C","second compound 0.316 µM, first compound 0.3 µM",0.11%
same,"viability, T/C","second compound 1 µM, first compound 0.000949 µM",110%
same,"viability, T/C","second compound 1 µM, first compound 0.003 µM",132%
same,"viability, T/C","second compound 1 µM, first compound 0.00949 µM",4.62%
same,"viability, T/C","second compound 1 µM, first compound 0.03 µM",0.06%
same,"viability, T/C","second compound 1 µM, first compound 0.0949 µM",0.04%
same,"viability, T/C","second compound 1 µM, first compound 0.3 µM",0.11%
same,"viability, T/C","second compound 3.16 µM, first compound 0.000949 µM",114%
same,"viability, T/C","second compound 3.16 µM, first compound 0.003 µM",118%
same,"viability, T/C","second compound 3.16 µM, first compound 0.00949 µM",2.71%
same,"viability, T/C","second compound 3.16 µM, first compound 0.03 µM",0.06%
same,"viability, T/C","second compound 3.16 µM, first compound 0.0949 µM",0.05%
same,"viability, T/C","second compound 3.16 µM, first compound 0.3 µM",0.12%
same,"viability, T/C","second compound 10 µM, first compound 0.000949 µM",96.3%
same,"viability, T/C","second compound 10 µM, first compound 0.003 µM",100%
same,"viability, T/C","second compound 10 µM, first compound 0.00949 µM",2.68%
same,"viability, T/C","second compound 10 µM, first compound 0.03 µM",0.15%
same,"viability, T/C","second compound 10 µM, first compound 0.0949 µM",0.15%
same,"viability, T/C","second compound 10 µM, first compound 0.3 µM",0.23%
Nc1ccccc1NC(=O)c1ccc(CNC(=O)OCc2cccnc2)cc1 + CC(CO)NC(=O)c1cc(-c2ccc(Cl)cc2)nn(-c2cnn(C)c2)c1=O,IC50,second compound 0.1 µM,560 nM
same,IC50,second compound 0.316 µM,486 nM
same,IC50,second compound 1 µM,496 nM
same,IC50,second compound 3.16 µM,447 nM
same,IC50,second compound 10 µM,211 nM
same,"viability, T/C",[1],89%
same,"viability, T/C",[2],95.2%
same,"viability, T/C",[3],67.4%
same,"viability, T/C",[4],30.2%
same,"viability, T/C",[5],10.7%
same,"viability, T/C",[6],0.66%
same,"viability, T/C",[7],84.3%
same,"viability, T/C",[8],87.1%
same,"viability, T/C",[9],57.2%
same,"viability, T/C",[10],32.9%
same,"viability, T/C",[11],8.17%
same,"viability, T/C",[12],0.43%
same,"viability, T/C",[13],93%
same,"viability, T/C",[14],94.7%
same,"viability, T/C",[15],61.8%
same,"viability, T/C",[16],28.1%
same,"viability, T/C",[17],8.39%
same,"viability, T/C",[18],0.38%
same,"viability, T/C",[19],83.7%
same,"viability, T/C",[20],79.7%
same,"viability, T/C",[21],62.2%
same,"viability, T/C",[22],22.2%
same,"viability, T/C",[23],7.6%
same,"viability, T/C",[24],0.3%
same,"viability, T/C",[25],70.3%
same,"viability, T/C",[26],68.8%
same,"viability, T/C",[27],39.2%
same,"viability, T/C",[28],16.6%
same,"viability, T/C",[29],7.12%
same,"viability, T/C",[30],0.32%
O=C(C=Cc1cccc(S(=O)(=O)Nc2ccccc2)c1)NO + CC(CO)NC(=O)c1cc(-c2ccc(Cl)cc2)nn(-c2cnn(C)c2)c1=O,IC50,second compound 0.1 µM,324 nM
same,IC50,second compound 0.316 µM,347 nM
same,IC50,second compound 1 µM,285 nM
same,IC50,second compound 3.16 µM,248 nM
same,IC50,second compound 10 µM,164 nM
same,"viability, T/C",[1],101%
same,"viability, T/C",[2],94.5%
same,"viability, T/C",[3],50.5%
same,"viability, T/C",[4],9.56%
same,"viability, T/C",[5],1.99%
same,"viability, T/C",[6],0.31%
same,"viability, T/C",[7],92.5%
same,"viability, T/C",[8],83.8%
same,"viability, T/C",[9],54.3%
same,"viability, T/C",[10],10.1%
same,"viability, T/C",[11],2%
same,"viability, T/C",[12],0.32%
same,"viability, T/C",[13],86.1%
same,"viability, T/C",[14],80.5%
same,"viability, T/C",[15],46.7%
same,"viability, T/C",[16],10.7%
same,"viability, T/C",[17],1.43%
same,"viability, T/C",[18],0.32%
same,"viability, T/C",[19],91.5%
same,"viability, T/C",[20],77.7%
same,"viability, T/C",[21],43.4%
same,"viability, T/C",[22],8.38%
same,"viability, T/C",[23],1.57%
same,"viability, T/C",[24],0.28%
same,"viability, T/C",[25],70.2%
same,"viability, T/C",[26],58.5%
same,"viability, T/C",[27],37.2%
same,"viability, T/C",[28],6.55%
same,"viability, T/C",[29],1.99%
same,"viability, T/C",[30],0.42%
